Several values for one entry are separate records, joined by “and”; a condition that tells them apart may be missing. Equal values may be shown once.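 96-well plates; 48 h exposure; 5 concentrations. Endpoints by linear interpolation between flanking doses. Not reached: highest tested concentration assigned. At the GI50, growth is halved. TGI: concentration producing complete growth inhibition.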
Experiments:
Assay in all cases: DTP human tumour cell line panel, 48 h
[1] = system: CAKI-1 renal
[2] = system: HCC-2998 colon
[3] = system: HCT-15 colon
[4] = system: HS 578T breast
[5] = system: MDA-MB-231 breast
[6] = system: MDA-MB-435
[7] = system: MDA-N
[8] = system: NCI-H460 lung
[9] = system: OVCAR-3 ovarian
[10] = system: OVCAR-5 ovarian
[11] = system: PC-3 prostate
[12] = system: SF-268 CNS
[13] = system: SF-539 CNS
[14] = system: SK-MEL-2 melanoma
[15] = system: SK-OV-3 ovarian
[16] = system: SNB-19 CNS
[17] = system: CCRF-CEM leukemia
[18] = system: MOLT-4 leukemia

SMILES	TGI [1]	TGI [2]	TGI [3]	TGI [4]	TGI [5]	TGI [6]	TGI [7]	TGI [8]	TGI [9]	TGI [10]	TGI [11]	TGI [12]	TGI [13]	TGI [14]	TGI [15]	TGI [16]	TGI [17]	TGI [18]	GI50 [18]	GI50 [5]
O=C(c1ccccc1)c1ccc2c(c1)nc1n2C(c2c(F)cccc2F)SC1 (configuration not stated)	> 100 µM	> 100 µM	> 100 µM	> 100 µM	> 100 µM	> 100 µM	55.1 µM	> 100 µM	96.2 µM	> 100 µM	> 100 µM	> 100 µM	> 100 µM	62.4 µM	> 100 µM	> 100 µM				
CCN(CC)c1ccc2cc(C(=O)NCc3ccccc3)c(=N)oc2c1	> 100 µM	> 100 µM	> 100 µM	> 88 µM	97 µM	> 100 µM	> 100 µM	> 100 µM	> 100 µM	> 100 µM	> 100 µM	> 100 µM	> 100 µM	> 100 µM	> 100 µM	> 100 µM	> 100 µM	> 100 µM		
CCCCCCNC(=S)N/N=C(\C)c1ccccn1	40.4 µM	20.9 µM	21.9 µM	> 100 µM	14.4 µM	17.8 µM	20.6 µM	8.81 µM	21.8 µM	25.9 µM	24.1 µM	17.8 µM	11.9 µM	22.7 µM	21.6 µM	21 µM				
C[C@@H]1CCC2C(C)(C)C(/C=C\C=O)C3(C)OC213 (some centres not stated)	> 100 µM	78.4 µM	> 100 µM	75.6 µM	> 100 µM	> 100 µM	> 100 µM	> 100 µM	> 100 µM	69.6 µM	> 100 µM	> 100 µM		> 100 µM	> 100 µM	> 100 µM		86.9 µM		
COc1cc(C(C[N+](=O)[O-])SC(C)=O)ccc1OCc1ccccc1 (configuration not stated)	27.7 µM	46.6 µM	9.11 µM	12.1 µM	13.3 µM	10 µM	8.54 µM	25.1 µM	7.87 µM	29.6 µM	17.4 µM	> 100 µM	4.87 µM	23.4 µM	29.6 µM	20.9 µM	> 100 µM	5.52 µM		
CCN(CC)c1ccc(C2Nc3ccc4ccccc4c3C3=C2C(=O)CCC3)cc1 (configuration not stated)	> 100 µM	> 100 µM	> 100 µM	34.4 µM	50.8 µM	> 100 µM	> 100 µM	> 100 µM	> 100 µM	> 100 µM	> 100 µM	> 100 µM	28.1 µM	> 100 µM	> 100 µM	> 100 µM	> 100 µM	> 100 µM		
N/C(=N\N=C\c1cc(I)cc(I)c1O)NO	> 100 µM	> 100 µM	> 100 µM	> 100 µM	> 100 µM	> 100 µM	> 100 µM	> 100 µM	14.6 µM	> 100 µM	> 100 µM	> 100 µM	75.6 µM	> 100 µM	> 100 µM	> 100 µM	52.4 µM	> 100 µM		
c1ccc(-c2c3c(nc4c2CC[C@H]4NC2=NCCN2)[C@@H](NC2=NCCN2)CC3)cc1	> 100 µM	> 100 µM	> 100 µM	> 100 µM	> 100 µM	> 100 µM	> 100 µM	> 100 µM	> 100 µM	> 100 µM	> 100 µM	> 100 µM	> 100 µM	> 100 µM	> 100 µM		> 100 µM	> 100 µM		
CN1N=C(c2ccccc2)C(C(c2ccccc2[N+](=O)[O-])C2C(=O)N(C)N=C2c2ccccc2)C1=O (configuration not stated)	> 100 µM	> 100 µM	> 100 µM	> 100 µM	> 100 µM	> 100 µM	> 100 µM	> 100 µM	> 100 µM	> 100 µM	> 100 µM	> 100 µM	> 100 µM	> 100 µM	> 100 µM	> 100 µM	60.1 µM	72.7 µM		
NC(N)=NS(=O)(=O)c1ccc(NNC(=O)c2cccc3c(=O)c4ccccc4[nH]c23)cc1	94.6 µM	38.3 µM	50.5 µM	> 100 µM	95.2 µM	57.5 µM	60.9 µM	49.1 µM	57.5 µM	> 100 µM	89.7 µM	> 100 µM	58.7 µM	63.7 µM	89.2 µM	> 100 µM	> 100 µM	80.9 µM		
CCO/C(O)=C(/C(=N)N1CCCC1)C(=O)Nc1cccc(Cl)c1	> 100 µM	> 100 µM	> 100 µM	> 100 µM	> 100 µM	> 100 µM	> 100 µM	> 100 µM	> 100 µM	> 100 µM	> 100 µM	> 100 µM	> 100 µM	> 100 µM	> 100 µM	> 100 µM	> 100 µM	> 100 µM		
O=C(Cn1c(=O)oc2ccc(C(=O)c3ccc(F)cc3)cc21)c1ccccc1	> 100 µM	> 100 µM	> 100 µM	> 100 µM	> 100 µM	> 100 µM	> 100 µM	> 100 µM		> 100 µM	> 100 µM	> 100 µM	> 100 µM	> 100 µM	> 100 µM	> 100 µM	> 100 µM	> 100 µM		
CC(=O)C1(C)CC(C#N)(C#N)C(C#N)=C1N (configuration not stated)	> 100 µM	> 100 µM	> 100 µM	> 100 µM	> 100 µM	> 100 µM	> 100 µM		> 100 µM	> 100 µM	> 100 µM	> 100 µM	> 100 µM	> 100 µM	> 100 µM	> 100 µM	> 100 µM	> 100 µM		
CC1OC(OC2C(OC(=O)[C@]34CCC(C)(C)C[C@H]3C3=CC[C@@H]5[C@@]6(C)CC[C@H](OC7OC(CO)C(O)C(O)C7OC7OC(CO)C(O)C(O)C7O)C(C)(C)[C@@H]6CC[C@@]5(C)[C@]3(C)CC4)OCC(O)C2O)C(O)C(O)C1OC1OCC(O)C(OC2OCC(O)C(O)C2O)C1O (some centres not stated)	15.8 µM and 15.3 µM	3.75 µM and 3.4 µM	27 µM and 26.8 µM	30.3 µM and 29.3 µM	8.71 µM and 9.09 µM	3.59 µM and 3.22 µM	3.58 µM and 3.09 µM	31.9 µM and 40.5 µM	22.3 µM and 34.6 µM	16.7 µM and 16 µM	17.8 µM and 19.1 µM	38.7 µM and 20.5 µM	42.7 µM and > 100 µM	8.07 µM and 8.23 µM	25.6 µM and 26.5 µM	20.8 µM and 20.5 µM	30 µM and 31.6 µM	22.4 µM and 26.6 µM	2.87 µM and 9.41 µM	
CCOC(=O)N(C)C(=C(F)F)C(F)(F)F		37.7 µM	34.3 µM	> 100 µM	84.2 µM	46.2 µM	40.2 µM	> 100 µM	> 100 µM	> 100 µM	> 100 µM	97.4 µM	78.3 µM	44.5 µM	> 100 µM		75.8 µM	51.6 µM		
Oc1cnc2c(O)cccc2c1		> 100 µM	> 100 µM	> 100 µM	> 100 µM	> 100 µM	> 100 µM	> 100 µM	65 µM	> 100 µM	> 100 µM	> 100 µM	96.6 µM	> 100 µM	> 100 µM	> 100 µM		> 100 µM		
CCCCOCOc1ccccc1P1(=O)COc2ccccc2OC1	> 100 µM	> 100 µM	> 100 µM	> 100 µM	> 100 µM	> 100 µM	> 100 µM	> 100 µM	> 100 µM	> 100 µM	> 100 µM	> 100 µM	> 100 µM	> 100 µM	> 100 µM	> 100 µM	> 100 µM			
O=C1NC(=S)NC(=O)C1=Cc1ccc(-c2ccccc2)cc1	> 100 µM	> 100 µM	> 100 µM	> 100 µM	> 100 µM	> 100 µM	> 100 µM	> 100 µM	> 100 µM	> 100 µM	> 100 µM	> 100 µM	> 100 µM	> 100 µM	> 100 µM	> 100 µM	> 100 µM	> 100 µM		
COC1CC(C)([N+](=O)[O-])C(O)C(C)O1 (configuration not stated)	> 100 µM	> 100 µM	> 100 µM	> 100 µM	> 100 µM	> 100 µM	> 100 µM	> 100 µM	> 100 µM	> 100 µM	> 100 µM	> 100 µM	> 100 µM	> 100 µM	> 100 µM	> 100 µM	> 100 µM	> 100 µM		
O=[N+]([O-])c1ccc(C2=NOC(c3ccc(Cl)cc3)N2C23CC4CC(CC(C4)C2)C3)cc1 (configuration not stated)	> 100 µM	> 100 µM	> 100 µM	> 100 µM	> 100 µM	> 100 µM	> 100 µM	> 100 µM	> 100 µM		> 100 µM	> 100 µM	> 100 µM	> 100 µM	> 100 µM	> 100 µM	> 100 µM	> 100 µM		
CC(=O)OCC1OC(n2c(N)c(C#N)c(C)c(C#N)c2=S)C(OC(C)=O)C(OC(C)=O)C1OC(C)=O (configuration not stated)	> 100 µM	> 100 µM	> 100 µM	> 100 µM	> 100 µM	> 100 µM	> 100 µM	> 100 µM	> 100 µM	> 100 µM	> 100 µM	> 100 µM	> 100 µM	> 100 µM	> 100 µM	> 100 µM	> 100 µM	> 100 µM		40 µM and > 100 µM
C=C1C(=O)O[C@H]2C/C(C)=C/CC[C@]3(C)CCC[C@](C)(CC[C@@H]12)O3	25.7 µM	14.5 µM	> 50 µM	48 µM	46.2 µM	15.6 µM	> 50 µM	16.9 µM	18.5 µM	> 50 µM	41.5 µM	16.3 µM	20.7 µM	17.9 µM	> 50 µM	> 50 µM	3.38 µM	15.7 µM		
NC(=O)NNCc1c(-c2ccccc2)no[n+]1[O-]	> 100 µM	> 100 µM	> 100 µM	> 100 µM	> 100 µM	> 100 µM	> 100 µM	> 100 µM	> 100 µM	> 100 µM	> 100 µM	> 100 µM	> 100 µM	> 100 µM	> 100 µM	> 100 µM	> 100 µM	> 100 µM		
CCCCC(/C=C\COC1CCCCO1)=C/C(=O)OCC (configuration not stated)	> 100 µM	> 100 µM	> 100 µM	> 100 µM	> 100 µM	> 100 µM	> 100 µM	> 100 µM	> 100 µM	> 100 µM	> 100 µM	> 100 µM	> 100 µM	> 100 µM	> 100 µM	> 100 µM	> 100 µM	71.5 µM		
CCc1cc2c(c3c1CCCC3)CC1(Cc3ccc(C(=O)OC)cc3C1)C2 (configuration not stated)		> 100 µM	> 100 µM	> 100 µM	> 100 µM	> 100 µM	> 100 µM	> 100 µM	> 100 µM	> 100 µM	> 100 µM	> 100 µM	> 100 µM	> 100 µM	> 100 µM	> 100 µM	56 µM	> 100 µM		
CN=C(N)N=Nc1c(O)[nH]c2ccccc12	> 100 µM	> 100 µM	> 100 µM	> 100 µM	> 100 µM	> 100 µM	> 100 µM	> 100 µM		> 100 µM	> 100 µM	> 100 µM		> 100 µM	> 100 µM	> 100 µM	> 100 µM	> 100 µM		
